Measurements published in patent publication US6737383B1, “Herbicidal oxadiazolidines” (priority 1999, dated 2004).

Key:
bedstraw = experiment: Test B pre/postemergence bedstraw; assay type: in vivo, Galium aparine; conditions: Preemergence
How it was run: (§1)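 Response is a visual 0-to-10 score relative to untreated plants, where 0 means no effect and 10 means complete control, taken twelve to sixteen days after application. Treatments went onto soil at planting and onto foliage of 1- to 4-leaf plants, using a surfactant-containing non-phytotoxic solvent.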

blackgrass = experiment: Test B pre/postemergence blackgrass; assay type: in vivo, Alopecurus myosuroides
How it was run: as §1

surinam grass = experiment: Test B pre/postemergence surinam grass; assay type: in vivo, Brachiaria decumbens
How it was run: as §1

cocklebur = experiment: Test B pre/postemergence cocklebur; assay type: in vivo, Xanthium strumarium
How it was run: as §1

corn = experiment: Test B pre/postemergence corn; assay type: in vivo, Zea mays
How it was run: as §1

crabgrass = experiment: Test B pre/postemergence crabgrass; assay type: in vivo, Digitaria sanguinalis
How it was run: as §1

rape = experiment: Test B pre/postemergence rape; assay type: in vivo, Brassica napus
How it was run: as §1

soybean = experiment: Test B pre/postemergence soybean; assay type: in vivo, Glycine max
How it was run: as §1

sugar beet = experiment: Test B pre/postemergence sugar beet; assay type: in vivo, Beta vulgaris
How it was run: as §1

velvetleaf = experiment: Test B pre/postemergence velvetleaf; assay type: in vivo, Abutilon theophrasti
How it was run: as §1

wheat = experiment: Test B pre/postemergence wheat; assay type: in vivo, Triticum aestivum
How it was run: as §1

wild oat = experiment: Test B pre/postemergence wild oat; assay type: in vivo, Avena fatua
How it was run: as §1

purple nutsedge = experiment: Test B pre/postemergence purple nutsedge; assay type: in vivo, Cyperus rotundus
How it was run: as §1

rice = experiment: Test B flood test rice; assay type: in vivo, Oryza sativa
How it was run: (§2)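 Read-out is a visual response score from 0 (no effect) to 10 (complete control), assigned by comparison with untreated controls. Treatment was applied at the 2-leaf stage, and plants stayed in the greenhouse for twelve to sixteen days before scoring.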

smallflower flatsedge = experiment: Test B flood test smallflower flatsedge; assay type: in vivo, Cyperus difformis
How it was run: as §2

duck salad = experiment: Test B flood test duck salad; assay type: in vivo, Heteranthera limosa
How it was run: as §2

bamyardgrass = experiment: Test B flood test barnyardgrass; assay type: in vivo, Echinochloa crus-galli
How it was run: as §2

[1] = Postemergence, Rate 31 g/ha, visual rating, scale 0 to 10 (0 no effect, 10 complete control)
[2] = Postemergence, Rate 125 g/ha, scale 0 to 10, 0 is no effect, 10 is complete control
[3] = Postemergence, Rate 250 g/ha, scale 0 to 10
[4] = Preemergence, Rate 31 g/ha, visual rating, scale 0 to 10 (0 no effect, 10 complete control)
[5] = Preemergence, Rate 62 g/ha, scale of 0 to 10 where 0 is no effect and 10 is complete control
[6] = Preemergence, Rate 125 g/ha, scale 0 to 10, 0 is no effect, 10 is complete control
[7] = Preemergence, Rate 250 g/ha, scale 0 to 10, 0 is no effect, 10 is complete control
[8] = Rate 62 g/ha, Postemergence, scale 0 to 10, 0 no effect, 10 complete control
[9] = Rate 31 g/ha, Pre-emergence section (flood test species), scale 0 to 10
[10] = Rate 62 g/ha, flood test species, Pre-emergence, visual evaluation after twelve to sixteen days
[11] = Rate 125 g/ha, under heading Pre-emergence, flood test species, visual evaluation after twelve to sixteen days
[12] = Rate 250 g/ha, Pre-emergence (flood test species), scale 0 to 10, 0 is no effect, 10 is complete control

CC(C)N(C(=O)n1oc(=O)n(CC[N+](=O)[O-])c1=O)c1ccc(Cl)cc1 [Compound 483]
0: Bedstraw plant response rating (bedstraw; Rate 31 g/ha, visual rating, scale 0 to 10 (0 no effect, 10 complete control)) | Plant response rating, Bedstraw (bedstraw; Rate 62 g/ha, scale of 0 to 10 where 0 is no effect and 10 is complete control) | Bedstraw plant response rating (bedstraw; Rate 125 g/ha, scale 0 to 10, 0 is no effect, 10 is complete control) | Bedstraw plant response rating (bedstraw; Rate 250 g/ha, scale 0 to 10, 0 is no effect, 10 is complete control) | Blackgrass plant response rating (blackgrass; [1]) | Blackgrass plant response rating (blackgrass; [2]) | Blackgrass plant response rating (blackgrass; [3]) | Blackgrass plant response rating (blackgrass; [4]) | Plant response rating, Blackgrass (blackgrass; [5]) | Blackgrass plant response rating (blackgrass; [6]) | Blackgrass plant response rating (blackgrass; [7]) | Blackgrass plant response rating (blackgrass; [8]) | B. signalgrass plant response rating (surinam grass; [1]) | B. signalgrass plant response rating (surinam grass; [2]) | B. signalgrass plant response rating (surinam grass; Postemergence, Rate 250 g/ha, scale 0 to 10, 0 no effect, 10 complete control) | B. signalgrass plant response rating (surinam grass; [4]) | Plant response rating, B. signalgrass (surinam grass; [5]) | B. signalgrass plant response rating (surinam grass; [6]) | B. signalgrass plant response rating (surinam grass; [7]) | B. signalgrass plant response rating (surinam grass; [8]) | Cocklebur plant response rating (cocklebur; [1]) | Cocklebur plant response rating (cocklebur; [2]) | Cocklebur plant response rating (cocklebur; [3]) | Cocklebur plant response rating (cocklebur; [4]) | Plant response rating, Cocklebur (cocklebur; [5]) | Cocklebur plant response rating (cocklebur; [6]) | Cocklebur plant response rating (cocklebur; [7]) | Cocklebur plant response rating (cocklebur; [8]) | Corn plant response rating (corn; [1]) | Corn plant response rating (corn; [2]) | Corn plant response rating (corn; [3]) | Corn plant response rating (corn; [4]) | Plant response rating, Corn (corn; [5]) | Corn plant response rating (corn; [6]) | Corn plant response rating (corn; [7]) | Corn plant response rating (corn; [8]) | Crabgrass plant response rating (crabgrass; [1]) | Crabgrass plant response rating (crabgrass; [2]) | Crabgrass plant response rating (crabgrass; [3]) | Crabgrass plant response rating (crabgrass; [4]) | Plant response rating, Crabgrass (crabgrass; [5]) | Crabgrass plant response rating (crabgrass; [6]) | Crabgrass plant response rating (crabgrass; [7]) | Crabgrass plant response rating (crabgrass; [8]) | Rape plant response rating (rape; [1]) | Rape plant response rating (rape; [2]) | Rape plant response rating (rape; [3]) | Plant response rating, Rape (rape; [5]) | Rape plant response rating (rape; [6]) | Rape plant response rating (rape; [7]) | Rape plant response rating (rape; [8]) | Soybean plant response rating (soybean; [1]) | Soybean plant response rating (soybean; [2]) | Soybean plant response rating (soybean; [3]) | Plant response rating, Soybean (soybean; [5]) | Soybean plant response rating (soybean; [6]) | Soybean plant response rating (soybean; [7]) | Soybean plant response rating (soybean; [8]) | Sugarbeets plant response rating (sugar beet; [1]) | Sugarbeets plant response rating (sugar beet; [2]) | Sugarbeets plant response rating (sugar beet; [3]) | Plant response rating, Sugarbeets (sugar beet; [5]) | Sugarbeets plant response rating (sugar beet; [6]) | Sugarbeets plant response rating (sugar beet; [7]) | Sugarbeets plant response rating (sugar beet; [8]) | Velvetleaf plant response rating (velvetleaf; [1]) | Velvetleaf plant response rating (velvetleaf; [2]) | Velvetleaf plant response rating (velvetleaf; [3]) | Plant response rating, Velvetleaf (velvetleaf; [5]) | Velvetleaf plant response rating (velvetleaf; [6]) | Velvetleaf plant response rating (velvetleaf; [7]) | Velvetleaf plant response rating (velvetleaf; [8]) | Wheat plant response rating (wheat; [1]) | Wheat plant response rating (wheat; [2]) | Wheat plant response rating (wheat; [3]) | Plant response rating, Wheat (wheat; [5]) | Wheat plant response rating (wheat; [6]) | Wheat plant response rating (wheat; [7]) | Wheat plant response rating (wheat; [8]) | Wild oats plant response rating (wild oat; [1]) | Wild oats plant response rating (wild oat; [2]) | Wild oats plant response rating (wild oat; [3]) | Plant response rating, Wild oats (wild oat; [5]) | Wild oats plant response rating (wild oat; [6]) | Wild oats plant response rating (wild oat; [7]) | Wild oats plant response rating (wild oat; [8]) | Nutsedge plant response rating (purple nutsedge; [1]) | Nutsedge plant response rating (purple nutsedge; [2]) | Nutsedge plant response rating (purple nutsedge; [3]) | Plant response rating, Nutsedge (purple nutsedge; [5]) | Nutsedge plant response rating (purple nutsedge; [6]) | Nutsedge plant response rating (purple nutsedge; [7]) | Nutsedge plant response rating (purple nutsedge; [8]) | Rice plant response rating (rice; [9]) | Plant response rating, Rice (0 to 10 scale, 0 is no effect, 10 is complete control) (rice; [10]) | Rice plant response rating (0 to 10 scale, 0 is no effect, 10 is complete control) (rice; [11]) | Rice plant response rating (rice; [12]) | S. Flatsedge plant response rating (smallflower flatsedge; [9]) | Plant response rating, S. Flatsedge (0 to 10 scale, 0 is no effect, 10 is complete control) (smallflower flatsedge; [10]) | S. Flatsedge plant response rating (0 to 10 scale, 0 is no effect, 10 is complete control) (smallflower flatsedge; [11]) | S. Flatsedge plant response rating (smallflower flatsedge; [12]) | Ducksalad plant response rating (duck salad; [9]) | Plant response rating, Ducksalad (0 to 10 scale, 0 is no effect, 10 is complete control) (duck salad; [10]) | Ducksalad plant response rating (0 to 10 scale, 0 is no effect, 10 is complete control) (duck salad; [11]) | Ducksalad plant response rating (duck salad; [12]) | Barnyardgrass plant response rating (bamyardgrass; [9]) | Plant response rating, Barnyardgrass (0 to 10 scale, 0 is no effect, 10 is complete control) (bamyardgrass; [10]) | Barnyardgrass plant response rating (0 to 10 scale, 0 is no effect, 10 is complete control) (bamyardgrass; [11]) | Barnyardgrass plant response rating (bamyardgrass; [12])
